IC50 and viability, T/C data for nine molecules are collected here from PubChem BioAssay AID1963832 (Molecular Pharmacology Branch, DTP, NCI, 2024).

For this assay, the system named is 885724-159-R-J1-PDC complex spheroid viability. Nature of the assay: Anticancer human tumor 885724-159-R-J1-PDC patient-derived pancreatic adenocarcinoma cell line growth inhibition [POLQ]. The conditions noted are these: for viability, T/C: stronger effect = lower value. The gist of the method:
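PDC + HUVEC + MSC complex spheroids; POLQ inhibitors ± partner drugs; top conc. at/near clinical Cmax, else 10 microM (SN-38 1 microM), half-log dilutions; 37 degrees C, 5% CO2.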

[1] abbreviates: curve of first compound, second compound 0.0316 µM.
The mark [2] stands for this setting: curve of first compound, second compound 0.1 µM.
Where [3] appears, read: curve of first compound, second compound 0.316 µM.
Where [4] appears, read: curve of first compound, second compound 1 µM.
Where [5] appears, read: curve of first compound, second compound 3.16 µM.
The mark [6] stands for this setting: curve of first compound, second compound 10 µM.
Where [7] appears, read: second compound 0.0316 µM, first compound 0.0316 µM.
[8] abbreviates: second compound 0.0316 µM, first compound 0.1 µM.
[9] abbreviates: second compound 0.0316 µM, first compound 0.316 µM.
[10] abbreviates: second compound 0.0316 µM, first compound 1 µM.
The mark [11] stands for this setting: second compound 0.1 µM, first compound 0.0316 µM.
[12] abbreviates: second compound 0.1 µM, first compound 0.1 µM.
The mark [13] stands for this setting: second compound 0.1 µM, first compound 0.316 µM.
The mark [14] stands for this setting: second compound 0.1 µM, first compound 1 µM.
Setting [15] is: second compound 0.316 µM, first compound 0.0316 µM.
Where [16] appears, read: second compound 0.316 µM, first compound 0.1 µM.
The mark [17] stands for this setting: second compound 0.316 µM, first compound 0.316 µM.
[18] abbreviates: second compound 0.316 µM, first compound 1 µM.
The mark [19] stands for this setting: second compound 1 µM, first compound 0.0316 µM.
The mark [20] stands for this setting: second compound 1 µM, first compound 0.1 µM.
Where [21] appears, read: second compound 1 µM, first compound 0.316 µM.
Where [22] appears, read: second compound 1 µM, first compound 1 µM.
[23] abbreviates: second compound 3.16 µM, first compound 0.0316 µM.
[24] abbreviates: second compound 3.16 µM, first compound 0.1 µM.
[25] abbreviates: second compound 3.16 µM, first compound 0.316 µM.
Where [26] appears, read: second compound 3.16 µM, first compound 1 µM.
Where [27] appears, read: second compound 10 µM, first compound 0.0316 µM.
The mark [28] stands for this setting: second compound 10 µM, first compound 0.1 µM.
Where [29] appears, read: second compound 10 µM, first compound 0.316 µM.
Where [30] appears, read: second compound 10 µM, first compound 1 µM.
Setting [31] is: second compound 0.0316 µM, first compound 3.16 µM.
Setting [32] is: second compound 0.0316 µM, first compound 10 µM.
The mark [33] stands for this setting: second compound 0.1 µM, first compound 3.16 µM.
Where [34] appears, read: second compound 0.1 µM, first compound 10 µM.
Setting [35] is: second compound 0.316 µM, first compound 3.16 µM.
[36] abbreviates: second compound 0.316 µM, first compound 10 µM.
Setting [37] is: second compound 1 µM, first compound 3.16 µM.
Where [38] appears, read: second compound 1 µM, first compound 10 µM.
[39] abbreviates: second compound 3.16 µM, first compound 3.16 µM.
[40] abbreviates: second compound 3.16 µM, first compound 10 µM.
[41] abbreviates: second compound 10 µM, first compound 3.16 µM.
The mark [42] stands for this setting: second compound 10 µM, first compound 10 µM.

Where “and” joins values, the source holds several entries; their conditions need not be identical. Equal values may be shown once. Some results are limits rather than exact numbers.
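Further: spheroids exposed to compounds for 7 days.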

As usually defined, the IC50 is the midpoint of a concentration-inhibition curve. One may read the viability, T/C as the ratio of treated to control. `COc1cccc(OCCCN)c1-c1cc(Nc2cnc(C#N)cn2)n[nH]1` + COC1C(OC(N)=O)C(O)C(Oc2ccc3c(O)c(NC(=O)c4ccc(O)c(CC=C(C)C)c4)c(=O)oc3c2C)OC1(C)C: the IC50 under setting [1] came to 5.21 nM; the IC50 under setting [2] stood at 7.41 nM; the half-maximal inhibitory concentration (IC50) under setting [3] was found to be 7.34 nM; the IC50 under setting [4] is 8.1 nM; the IC50 under setting [5] was determined as 17.6 nM; the concentration for half-maximal inhibition (IC50) under setting [6] is 6.72 nM. Besides, the viability, T/C was 58.8% (second compound 0.0316 µM, first compound 0.00316 µM); 45.9% (second compound 0.0316 µM, first compound 0.01 µM); 40.8% under setting [7]; 41.1% under setting [8]; 44.4% under setting [9]; 46.8% under setting [10]. Also, the viability, T/C is 62.2% (second compound 0.1 µM, first compound 0.00316 µM); 46.1% (second compound 0.1 µM, first compound 0.01 µM); 41.2% under setting [11]; 42.3% under setting [12]; 45.4% under setting [13]; 39% under setting [14]. Also, the viability, T/C reads like this: (second compound 0.316 µM, first compound 0.00316 µM) 62.6%; (second compound 0.316 µM, first compound 0.01 µM) 45.3%; under setting [15], 43.5%; under setting [16], 46.9%; under setting [17], 42.5%; under setting [18], 40.8%. Also, the viability, T/C is, setting by setting: (second compound 1 µM, first compound 0.00316 µM) 63.2%; (second compound 1 µM, first compound 0.01 µM) 48.5%; under setting [19], 41.8%; under setting [20], 35.9%; under setting [21], 45.4%; under setting [22], 46.4%. For the same molecule, the viability, T/C reads like this: (second compound 3.16 µM, first compound 0.00316 µM) 58.7%; (second compound 3.16 µM, first compound 0.01 µM) 55%; under setting [23], 44.6%; under setting [24], 44.2%; under setting [25], 43.2%; under setting [26], 39.6%. For the same molecule, the viability, T/C is, setting by setting: (second compound 10 µM, first compound 0.00316 µM) 59.4%; (second compound 10 µM, first compound 0.01 µM) 45.4%; under setting [27], 41.5%; under setting [28], 44.3%; under setting [29], 43.5%; under setting [30], 45.1%.
For `O=C(Nc1ccc(O)c(NS(=O)(=O)c2ccc(F)cc2)c1)c1ccc(-c2ccccc2)cc1`, the viability, T/C was 98% and 103% and 91.6% (compound 0.0316 µM); 107% and 100% and 93.8% (compound 0.1 µM); 101% and 88.4% and 88.6% (compound 0.316 µM); 100% and 110% and 97.2% (compound 1 µM); 112% and 118% and 108% (compound 3.16 µM); 117% and 97.2% and 76% (compound 10 µM). For the same molecule, where the note is “curve of compound”, the IC50 is more than 10000 nM.
`CC1COCCN1c1cc(C2(O)CC3CCC(C2)O3)c2cnn(-c3ccn[nH]3)c2n1` (stereo not drawn) + COC1C(OC(N)=O)C(O)C(Oc2ccc3c(O)c(NC(=O)c4ccc(O)c(CC=C(C)C)c4)c(=O)oc3c2C)OC1(C)C: the IC50 under setting [1] stood at 139 nM; the IC50 under setting [2] is 150 nM; the IC50 under setting [3] came out at 98.2 nM; the IC50 under setting [4] stood at 139 nM; the IC50 under setting [5] worked out at 96 nM; the IC50 under setting [6] was 102 nM. In addition, the viability, T/C is 74.7% under setting [7]; 49.8% under setting [8]; 38.8% under setting [9]; 41.8% under setting [10]; 31.5% under setting [31]; 23.2% under setting [32]. Further, the viability, T/C by setting is: under setting [11], 73.3%; under setting [12], 51.4%; under setting [13], 40%; under setting [14], 41.4%; under setting [33], 31.9%; under setting [34], 24.7%. Moreover, the viability, T/C is, setting by setting: under setting [15], 63.1%; under setting [16], 50.4%; under setting [17], 39%; under setting [18], 34.8%; under setting [35], 32.5%; under setting [36], 28.6%. Further, the viability, T/C under setting [19] was 75.1%; the viability, T/C under setting [20] is 52%; the viability, T/C under setting [21] was 39.7%; the viability, T/C under setting [22] was 38.1%; the viability, T/C under setting [37] is 31.2%; the viability, T/C under setting [38] was 25.4%. The viability, T/C is, setting by setting: under setting [23], 68.1%; under setting [24], 44.8%; under setting [25], 42.5%; under setting [26], 35.8%; under setting [39], 31.8%; under setting [40], 26.4%. The viability, T/C is, setting by setting: under setting [27], 61.1%; under setting [28], 50.5%; under setting [29], 40.8%; under setting [30], 34.5%; under setting [41], 34.9%; under setting [42], 26.3%.
With `Cn1ncnc1[C@H]1c2n[nH]c(=O)c3cc(F)cc(c23)N[C@@H]1c1ccc(F)cc1`, the viability, T/C by setting is: (compound 0.000316 µM) 96.8% and 84.9% and 99.5%; (compound 0.001 µM) 94.3% and 95.2% and 99.7%; (compound 0.00316 µM) 91.6% and 90.1% and 98.2%; (compound 0.01 µM) 103% and 94.9% and 99.3%; (compound 0.0316 µM) 97.7% and 93.4% and 103%; (compound 0.1 µM) 83.7% and 84.4% and 85.2%. Besides, under “curve of compound”, the IC50 was more than 100 nM.
`O=C(Nc1ccc(O)c(NS(=O)(=O)c2ccc(F)cc2)c1)c1ccc(-c2ccccc2)cc1` + Nc1ccc(C#CCN(C(=O)Cc2ncc(C(F)(F)F)cc2C(F)(F)F)c2ccc(F)cc2)nn1: the IC50 under setting [1] was more than 10000 nM; the IC50 under setting [2] was more than 10000 nM; the IC50 under setting [3] is more than 10000 nM; the 50% inhibitory concentration (IC50) under setting [4] was more than 10000 nM; the IC50 under setting [5] was more than 10000 nM; the half-maximal inhibitory concentration (IC50) under setting [6] was more than 10000 nM. Also, the viability, T/C reads like this: under setting [7], 97.8%; under setting [8], 94.2%; under setting [9], 97.4%; under setting [10], 97.6%; under setting [31], 110%; under setting [32], 93.3%. Besides, the viability, T/C by setting is: under setting [11], 102%; under setting [12], 95.3%; under setting [13], 112%; under setting [14], 101%; under setting [33], 111%; under setting [34], 96.4%. Further, the viability, T/C reads like this: under setting [15], 103%; under setting [16], 93.2%; under setting [17], 94.7%; under setting [18], 103%; under setting [35], 110%; under setting [36], 93.4%. Further, the viability, T/C reads like this: under setting [19], 110%; under setting [20], 99.4%; under setting [21], 78.1%; under setting [22], 98.3%; under setting [37], 101%; under setting [38], 92.1%. Further, the viability, T/C is, setting by setting: under setting [23], 97.1%; under setting [24], 91%; under setting [25], 87.3%; under setting [26], 104%; under setting [39], 108%; under setting [40], 95.7%. The viability, T/C under setting [27] was 91.2%; the viability, T/C under setting [28] was 98.4%; the viability, T/C under setting [29] is 103%; the viability, T/C under setting [30] was 98.6%; the viability, T/C under setting [41] was 108%; the viability, T/C under setting [42] was 86.4%.
In the case of `CC[C@@]1(O)C(=O)OCc2c1cc1n(c2=O)Cc2cc3c(CN(C)C)c(O)ccc3nc2-1`, the viability, T/C (compound 0.000316 µM) was 97.3% and 109% and 93.8%; the viability, T/C (compound 0.001 µM) is 102% and 92% and 99%; the viability, T/C (compound 0.00316 µM) was 98.8% and 97.1% and 92.2%; the viability, T/C (compound 0.01 µM) is 89.7% and 86.8% and 86.5%; the viability, T/C (compound 0.0316 µM) was 80.4% and 78.2% and 74.8%; the viability, T/C (compound 0.1 µM) is 57.3% and 62.5% and 57.7%. In addition, the IC50 (curve of compound) is more than 100 nM.
For `CCCS(=O)(=O)Nc1ccc(F)c(C(=O)c2c[nH]c3ncc(-c4ccc(Cl)cc4)cc23)c1F`, the viability, T/C is 93.7% and 104% and 95.6% (compound 0.0316 µM); 117% and 108% and 115% (compound 0.1 µM); 124% (2×) and 122% (compound 0.316 µM); 158% and 146% and 140% (compound 1 µM); 158% and 144% and 133% (compound 3.16 µM); 90.7% and 102% and 68.9% (compound 10 µM). For the same molecule, the IC50 (curve of compound) was more than 10000 nM.
Consider `COc1cccc2c1C(=O)c1c(O)c3c(c(O)c1C2=O)CC(O)(C(=O)CO)CC3OC1CC(N)C(O)C(C)O1` (stereo not drawn), for which the viability, T/C reads like this: (compound 0.0316 µM) 72.9% and 74.1% and 66.6%; (compound 0.1 µM) 54.6% and 56% and 97.5%; (compound 0.316 µM) 30.8% and 36.2% and 31.9%; (compound 1 µM) 11.2% and 13.3% and 8.99%; (compound 3.16 µM) 5.6% and 5.49% and 5.32%; (compound 10 µM) 7.5% and 6.14% and 6.82%. Further, the IC50 (curve of compound) was 128 nM and 146 nM and 209 nM.
Take `C#Cc1c(F)ccc2cc(O)cc(-c3ncc4c(N5CC6CCC(C5)N6)nc(OCC56CCCN5CC(F)C6)nc4c3F)c12` (stereo not drawn): the viability, T/C is 106% and 94.3% and 96.4% (compound 0.0316 µM); 99.8% and 92.7% and 89.8% (compound 0.1 µM); 85.4% and 94.8% and 91.8% (compound 0.316 µM); 67.7% and 67.8% and 78.2% (compound 1 µM); 38.5% and 45.1% and 45.6% (compound 3.16 µM); 20.5% and 24.2% and 20.4% (compound 10 µM). In addition, the IC50 (curve of compound) is 2020 nM and 2370 nM and 2710 nM.
